Drawing on ChEMBL document CHEMBL4706552, “Discovery of 4-methyl-N-(4-((4-methylpiperazin- 1-yl)methyl)-3-(trifluoromethyl)phenyl)-3-((6-(pyridin-3-yl)-1H-pyrazolo[3,4-d]pyrimidin-4-yl)-oxy)benzamide as a potent inhibitor of RET and its gatekeeper mutant” (Eur J Med Chem, 2020), this text covers GI50 and Survival for 40 compounds.

Format in all cases: cell-based
Data set [1] relates to Kinesin-1 heavy chain/ Tyrosine-protein kinase receptor RET (Homo sapiens), P07949+P33176 [V804M]. Kind of data set: Inhibition of KIF5B-RET V804M mutant fusion protein (unknown origin) expressed in mouse BaF3 cells assessed as reduction in cell proliferation measured after 48 hrs by MTS assay. A general note: Tetrazolium dyes change colour on reduction, which living cells bring about.

The next data set concerns BaF3. The data set is described as follows: Inhibition of CCDC6-RET V804M mutant fusion protein (unknown origin) expressed in mouse BaF3 cells assessed as reduction in cell proliferation measured after 48 hrs by MTS assay. Particulars: Homo sapiens.
The nature of data set [2]: Cytotoxicity against mouse BaF3 cells assessed as reduction in cell proliferation measured after 48 hrs by MTS assay.
Data set [3] concerns the target T1, Coiled-coil domain-containing protein 6/Tyrosine-protein kinase receptor RET (Homo sapiens) (UniProt P07949+Q16204). Kind of data set: Inhibition of CCDC6-RET fusion protein (unknown origin) expressed in mouse BaF3 cells assessed as reduction in cell proliferation measured after 48 hrs by MTS assay.
In data set [4] the target is T2, Kinesin-1 heavy chain/ Tyrosine-protein kinase receptor RET (Homo sapiens) (UniProt P07949+P33176). Kind of data set: Inhibition of KIF5B-RET fusion protein (unknown origin) expressed in mouse BaF3 cells assessed as reduction in cell proliferation measured after 48 hrs by MTS assay.
T2 sequence (P07949 29-1114 limits assumed): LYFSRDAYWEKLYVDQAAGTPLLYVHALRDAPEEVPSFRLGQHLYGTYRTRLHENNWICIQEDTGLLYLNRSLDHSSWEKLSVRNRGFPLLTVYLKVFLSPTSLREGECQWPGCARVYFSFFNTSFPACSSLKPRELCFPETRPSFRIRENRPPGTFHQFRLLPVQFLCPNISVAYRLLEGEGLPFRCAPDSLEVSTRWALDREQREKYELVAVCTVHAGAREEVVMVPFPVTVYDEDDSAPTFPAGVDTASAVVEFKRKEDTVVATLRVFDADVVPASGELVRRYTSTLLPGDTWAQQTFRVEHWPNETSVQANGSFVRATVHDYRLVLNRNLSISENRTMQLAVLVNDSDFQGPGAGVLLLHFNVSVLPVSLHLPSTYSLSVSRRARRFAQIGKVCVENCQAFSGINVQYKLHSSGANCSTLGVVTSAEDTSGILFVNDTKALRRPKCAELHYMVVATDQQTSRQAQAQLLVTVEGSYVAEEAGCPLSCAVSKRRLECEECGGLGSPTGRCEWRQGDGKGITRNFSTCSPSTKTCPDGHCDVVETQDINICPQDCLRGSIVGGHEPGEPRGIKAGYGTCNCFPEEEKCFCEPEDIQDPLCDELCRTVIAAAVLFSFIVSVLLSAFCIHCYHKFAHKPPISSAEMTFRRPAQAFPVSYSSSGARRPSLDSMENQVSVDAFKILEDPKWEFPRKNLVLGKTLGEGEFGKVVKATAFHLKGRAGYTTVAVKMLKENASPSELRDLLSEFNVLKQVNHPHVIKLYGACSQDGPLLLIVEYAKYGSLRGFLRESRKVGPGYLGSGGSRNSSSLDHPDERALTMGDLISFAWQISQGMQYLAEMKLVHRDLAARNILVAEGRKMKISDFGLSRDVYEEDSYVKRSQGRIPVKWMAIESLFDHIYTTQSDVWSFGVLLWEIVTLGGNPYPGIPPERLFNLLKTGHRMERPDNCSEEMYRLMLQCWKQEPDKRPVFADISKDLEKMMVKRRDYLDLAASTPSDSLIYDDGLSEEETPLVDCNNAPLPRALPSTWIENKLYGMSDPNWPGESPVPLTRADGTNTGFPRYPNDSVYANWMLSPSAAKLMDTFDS
T2 sequence (P33176 2-963 partner limits assumed): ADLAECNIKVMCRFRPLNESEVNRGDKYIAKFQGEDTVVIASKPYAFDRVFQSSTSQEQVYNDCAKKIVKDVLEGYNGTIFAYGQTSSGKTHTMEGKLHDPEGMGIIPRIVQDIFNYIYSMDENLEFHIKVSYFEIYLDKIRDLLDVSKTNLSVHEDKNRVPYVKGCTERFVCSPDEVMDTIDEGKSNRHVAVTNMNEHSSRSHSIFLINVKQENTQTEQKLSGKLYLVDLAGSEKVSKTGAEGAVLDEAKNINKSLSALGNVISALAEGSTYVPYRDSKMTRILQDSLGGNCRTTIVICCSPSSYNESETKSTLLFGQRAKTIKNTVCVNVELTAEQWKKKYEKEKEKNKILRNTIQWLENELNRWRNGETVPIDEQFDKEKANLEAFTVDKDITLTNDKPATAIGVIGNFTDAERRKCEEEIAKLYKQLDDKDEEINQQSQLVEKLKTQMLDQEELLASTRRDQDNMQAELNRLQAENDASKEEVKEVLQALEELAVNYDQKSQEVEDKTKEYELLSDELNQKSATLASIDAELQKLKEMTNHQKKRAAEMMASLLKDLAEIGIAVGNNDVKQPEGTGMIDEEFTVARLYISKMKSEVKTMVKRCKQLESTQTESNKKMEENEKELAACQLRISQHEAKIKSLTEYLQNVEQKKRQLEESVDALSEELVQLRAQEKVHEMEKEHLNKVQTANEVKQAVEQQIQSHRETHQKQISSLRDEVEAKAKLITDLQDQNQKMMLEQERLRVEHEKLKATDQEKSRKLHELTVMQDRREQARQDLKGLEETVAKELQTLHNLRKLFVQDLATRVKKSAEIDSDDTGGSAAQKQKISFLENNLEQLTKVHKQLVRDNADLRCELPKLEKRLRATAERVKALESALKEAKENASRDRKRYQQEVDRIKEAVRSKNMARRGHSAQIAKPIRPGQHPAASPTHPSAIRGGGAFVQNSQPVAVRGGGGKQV
Data set [5] deals with T2, Kinesin-1 heavy chain/ Tyrosine-protein kinase receptor RET (Homo sapiens). The data set is described as follows: Inhibition of KIF5B-RET fusion protein (unknown origin) expressed in mouse BaF3 cells assessed as cell survival at 2 uM measured after 48 hrs by MTS assay relative to control.
The target of data set [6] is T1, Coiled-coil domain-containing protein 6/Tyrosine-protein kinase receptor RET (Homo sapiens). Kind of data set: Inhibition of CCDC6-RET fusion protein (unknown origin) expressed in mouse BaF3 cells assessed as cell survival at 2 uM measured after 48 hrs by MTS assay relative to control.

T1 sequence (P07949 29-1114 limits assumed): as the sequence (P07949 29-1114 limits assumed) above
T1 sequence (Q16204 2-474 partner limits assumed): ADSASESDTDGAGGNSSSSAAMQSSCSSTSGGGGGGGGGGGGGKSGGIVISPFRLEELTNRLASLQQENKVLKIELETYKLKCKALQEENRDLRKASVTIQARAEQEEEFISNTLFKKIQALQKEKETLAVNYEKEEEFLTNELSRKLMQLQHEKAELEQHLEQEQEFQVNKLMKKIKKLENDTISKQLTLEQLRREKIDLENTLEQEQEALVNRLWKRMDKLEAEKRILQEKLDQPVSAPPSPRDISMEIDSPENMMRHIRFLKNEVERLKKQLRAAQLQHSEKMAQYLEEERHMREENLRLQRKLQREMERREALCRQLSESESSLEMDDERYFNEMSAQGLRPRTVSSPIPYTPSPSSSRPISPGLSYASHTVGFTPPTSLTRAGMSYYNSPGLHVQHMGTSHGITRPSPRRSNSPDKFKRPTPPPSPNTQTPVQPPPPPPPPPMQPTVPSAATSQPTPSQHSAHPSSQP

The term GI50 denotes the concentration giving 50% growth inhibition. As to `COc1cc2nccc(Oc3ccc(NC(=O)C4(C(=O)Nc5ccc(F)cc5)CC4)cc3)c2cc1OC` [CABOZANTINIB], the GI50 in data set [1] was found to be 1210 nM; in the data set on BaF3 it was 1000 nM; in data set [3], 29 nM. The GI50 at 48 h in data set [2] came to 7910 nM.
For the compound `CN1CCN(Cc2ccc(NC(=O)c3cc(Oc4nc(-c5cccnc5)nc5c4cnn5C)ccc3Cl)cc2C(F)(F)F)CC1`, the results for the GI50 in data set [4] and in data set [3] were 4020 nM and 4170 nM, respectively.
For `Cc1ccc(C(=O)Nc2cccc(C(F)(F)F)c2)cc1Oc1nc(-c2cccnc2)nc2c1cnn2C` the same measures were 2240 nM and 1970 nM.
In the case of `Cc1ccc(NC(=O)c2ccc(CN3CCN(C)CC3)c(C(F)(F)F)c2)cc1Oc1nc(-c2ccncc2)nc2c1cnn2C`, the results for the GI50 in data set [4] and in data set [3] were 469 nM and 617 nM, respectively.
For `Cc1ccc(C(=O)Nc2ccc(CN3CCN(C)CC3)c(C(F)(F)F)c2)cc1Oc1nc(Nc2ccccc2)nc2c1cnn2C`, the GI50 in data set [4] worked out at 70 nM; in data set [3], 123 nM.
For `Cc1ccc(C(=O)Nc2cc(CN3CCN(C)CC3)cc(C(F)(F)F)c2)cc1Oc1nc(-c2cccnc2)nc2c1cnn2C`, the 50% growth inhibitory concentration (GI50) is 482 nM in data set [4] and 264 nM in data set [3].
As to `Cc1ccc(C(=O)Nc2ccc(CN3CCN(C)CC3)c(C(F)(F)F)c2)cc1Oc1nc(-c2cccc(O)c2)nc2c1cnn2C`, the GI50 in data set [1] was 274 nM; in data set [4], 28 nM; in the data set with BaF3, 499 nM; in data set [3], 178 nM. Also, in data set [2], the GI50 at 48 h is 2640 nM.
Regarding `Cc1cn(-c2cc(NC(=O)c3ccc(C)c(Oc4nc(-c5ccncc5)nc5c4cnn5C)c3)cc(C(F)(F)F)c2)cn1`, the GI50 in data set [4] is 2620 nM; in data set [3] it was 1570 nM.
As to `Cc1ccc(C(=O)Nc2ccc(CN3CCN(C)CC3)c(C(F)(F)F)c2)cc1Oc1nc(-c2ccc(O)cc2)nc2c1cnn2C`, the concentration for 50% growth inhibition (GI50) in data set [4] was 57 nM; in data set [3], 166 nM.
As for `Cc1ccc(-c2nc(Oc3cc(C(=O)Nc4ccc(CN5CCN(C)CC5)c(C(F)(F)F)c4)ccc3C)c3cnn(C)c3n2)cc1`, the GI50 in data set [4] came out at 152 nM; in data set [3] it was 847 nM.
For `CN1CCN(Cc2ccc(C(=O)Nc3cc(Oc4nc(-c5ccncc5)nc5[nH]ncc45)ccc3Cl)cc2C(F)(F)F)CC1`, the GI50 is 6520 nM in data set [1], 22 nM in data set [4], 7380 nM in the data set on BaF3 and 13 nM in data set [3]. Moreover, the GI50 at 48 h in data set [2] worked out at 1010 nM.
For the compound `Cc1ccc(Oc2nc(-c3cccnc3)nc3c2cnn3C)cc1C(=O)Nc1ccc(CN2CCN(C)CC2)c(C(F)(F)F)c1`, the Survival in data set [5] was 87.5%; in data set [6], 100%.
Consider `Cc1ccc(C(=O)Nc2ccc(CN3CCN(C)CC3)c(C(F)(F)F)c2)cc1Oc1nc(-c2ccncc2)nc2c1cnn2C`, for which the GI50 in data set [1] stood at 90 nM; in data set [4], 36 nM; in the data set with BaF3 it was 220 nM; in data set [3], 39 nM. Further, the GI50 at 48 h in data set [2] was determined as 2620 nM.
As to `CN1CCN(Cc2ccc(C(=O)Nc3cccc(Oc4nc(-c5ccncc5)nc5c4cnn5C)c3)cc2C(F)(F)F)CC1`, the GI50 amounted to 106 nM in data set [4] and 140 nM in data set [3].
For `Cc1cn(-c2cc(NC(=O)c3ccc(C)c(Oc4nc(-c5cccnc5)nc5c4cnn5C)c3)cc(C(F)(F)F)c2)cn1`, the GI50 in data set [4] and in data set [3] was over 10000 nM each time.
Turning to `CN1CCN(Cc2ccc(NC(=O)c3cc(Oc4nc(-c5ccncc5)nc5c4cnn5C)ccc3Cl)cc2C(F)(F)F)CC1`, the GI50 came out at 130 nM in data set [4] and 108 nM in data set [3].
The like results for `CN1CCN(Cc2ccc(C(=O)Nc3cc(Oc4nc(-c5cccnc5)nc5[nH]ncc45)ccc3Cl)cc2C(F)(F)F)CC1` were, in that order, 1350 nM and 567 nM.
Regarding `CN1CCN(Cc2ccc(C(=O)Nc3cc(Oc4nc(-c5cccnc5)nc5c4cnn5C)ccc3Cl)cc2C(F)(F)F)CC1`, the values for the GI50 in data set [4] and in data set [3] were 1390 nM and 2070 nM, respectively.
As for `CN1CCN(Cc2ccc(C(=O)Nc3cccc(Oc4nc(-c5ccncc5)nc5[nH]ncc45)c3)cc2C(F)(F)F)CC1`, the GI50 in data set [4] stood at 299 nM; in data set [3], 79 nM.
As for `CO[C@]1(C(=O)N[C@@H](C)c2ccc(-n3cc(F)cn3)nc2)CC[C@H](c2nc(C)cc(Nc3cc(C)[nH]n3)n2)CC1` [PRALSETINIB], the GI50 (in data set [1]; in data set [4]; in the data set with BaF3; in data set [3]) was under 4 nM each time. Besides, in data set [2], the GI50 at 48 h stood at 1270 nM.
As to `CN1CCN(Cc2ccc(NC(=O)c3cccc(Oc4nc(-c5cccnc5)nc5c4cnn5C)c3)cc2C(F)(F)F)CC1`, the Survival was determined as 56.5% in data set [5] and 65.5% in data set [6].
For the compound `Cc1ccc(C(=O)Nc2ccc(CN3CCN(C)CC3)c(C(F)(F)F)c2)cc1Oc1nc(-c2cccc(Cl)c2)nc2c1cnn2C`, the GI50 in data set [4] was 320 nM; in data set [3], 807 nM.
In the case of `CN1CCN(Cc2ccc(C(=O)Nc3cc(Oc4nc(-c5ccncc5)nc5c4cnn5C)ccc3Cl)cc2C(F)(F)F)CC1`, the GI50 was 8190 nM in data set [1], 114 nM in data set [4], over 10000 nM in the data set on BaF3 and 16 nM in data set [3]. In addition, the GI50 at 48 h in data set [2] was found to be 3400 nM.
Take `Cc1ccc(C(=O)Nc2ccc(CN3CCN(C)CC3)c(C(F)(F)F)c2)cc1Oc1nc(-c2ccccc2)nc2c1cnn2C`: the GI50 in data set [4] came out at 98 nM; in data set [3], 348 nM.
Take `CCn1ncc2c(Oc3cc(C(=O)Nc4ccc(CN5CCN(C)CC5)c(C(F)(F)F)c4)ccc3C)nc(-c3ccncc3)nc21`: the 50% growth inhibitory concentration (GI50) in data set [4] and in data set [3] was over 10000 nM each time.
Turning to `Cc1ccc(C(=O)Nc2ccc(CN3CCN(C)CC3)c(C(F)(F)F)c2)cc1Oc1nc(-c2ccoc2)nc2c1cnn2C`, the GI50 came to 290 nM in data set [1], 14 nM in data set [4], 529 nM in the data set with BaF3 and 75 nM in data set [3]. Besides, the GI50 at 48 h in data set [2] was over 10000 nM.
The like results for `Cc1ccc(C(=O)Nc2ccc(CN3CCN(C)CC3)c(C(F)(F)F)c2)cc1Oc1nc(-c2ccsc2)nc2c1cnn2C` were, in that order, 564 nM, 36 nM, 736 nM, 449 nM and 5070 nM.
Regarding `Cc1ccc(Oc2nc(-c3cccnc3)nc3c2cnn3C)cc1NC(=O)c1ccc(CN2CCN(C)CC2)c(C(F)(F)F)c1`, the GI50 in data set [4] stood at 4420 nM; in data set [3], 4170 nM.
On to `Cc1ccc(Oc2nc(-c3ccncc3)nc3[nH]ncc23)cc1NC(=O)c1ccc(CN2CCN(C)CC2)c(C(F)(F)F)c1`, for which the GI50 came to 757 nM in data set [1], 4 nM in data set [4], 1890 nM in the data set with BaF3 and 4 nM in data set [3]. The GI50 at 48 h in data set [2] is 3450 nM.
Turning to `CN1CCN(Cc2ccc(NC(=O)c3cccc(Oc4nc(-c5ccncc5)nc5c4cnn5C)c3)cc2C(F)(F)F)CC1`, the Survival in data set [5] is 74.9%; in data set [6], 94.1%.
Turning to `Cc1ccc(NC(=O)c2ccc(CN3CCN(C)CC3)c(C(F)(F)F)c2)cc1Oc1nc(-c2cccnc2)nc2c1cnn2C`, the GI50 in data set [4] was found to be 411 nM; in data set [3] it was 477 nM.
The like results for `Cc1ccc(C(=O)Nc2ccc(CN3CCN(C)CC3)c(C(F)(F)F)c2)cc1Oc1nc(-c2ccc(Cl)cc2)nc2c1cnn2C` were, in that order, 114 nM and 696 nM.
Turning to `CN1CCN(Cc2ccc(C(=O)Nc3cccc(Oc4nc(-c5cccnc5)nc5c4cnn5C)c3)cc2C(F)(F)F)CC1`, the GI50 in data set [4] came out at 953 nM; in data set [3], 1110 nM.
Consider `Cc1ccc(Oc2nc(-c3ccncc3)nc3c2cnn3C)cc1NC(=O)c1ccc(CN2CCN(C)CC2)c(C(F)(F)F)c1`, for which the GI50 in data set [1] came out at 4210 nM; in data set [4], 6 nM; in the data set on BaF3, 4870 nM; in data set [3], 13 nM. In data set [2], the GI50 at 48 h was 2780 nM.
Take `CN1CCN(Cc2ccc(C(=O)Nc3cccc(Oc4nc(-c5cccnc5)nc5[nH]ncc45)c3)cc2C(F)(F)F)CC1`: the GI50 in data set [4] worked out at 820 nM; in data set [3], 342 nM.
Turning to `Cc1ccc(C(=O)Nc2ccc(CN3CCN(C)CC3)c(C(F)(F)F)c2)cc1Oc1nc(-c2cccnc2)nc2c1cnn2C`, the GI50 in data set [1] was 113 nM; in data set [4], 35 nM; in the data set with BaF3, 136 nM; in data set [3] it was 39 nM. The GI50 at 48 h in data set [2] came to 1290 nM.
Regarding `Cc1ccc(Oc2nc(-c3cccnc3)nc3[nH]ncc23)cc1NC(=O)c1ccc(CN2CCN(C)CC2)c(C(F)(F)F)c1`, the GI50 was found to be 3890 nM in data set [4] and 2370 nM in data set [3].
In the case of `Cc1ccc(C(=O)Nc2ccc(CN3CCN(C)CC3)c(C(F)(F)F)c2)cc1Oc1nc(-c2ccncc2)nc2[nH]ncc12`, the GI50 is 240 nM in data set [4] and 73 nM in data set [3].
For the compound `Cc1ccc(C(=O)Nc2ccc(CN3CCN(C)CC3)c(C(F)(F)F)c2)cc1Oc1nc(-c2ccncc2)nc2c1cnn2C(C)C`, the GI50 in data set [4] turned out to be 915 nM; in data set [3], 1100 nM.
As to `Cc1ccc(Oc2nc(-c3ccncc3)nc3c2cnn3C)cc1C(=O)Nc1ccc(CN2CCN(C)CC2)c(C(F)(F)F)c1`, the values for the GI50 in data set [4] and in data set [3] were 440 nM and 1520 nM, respectively.
